By vapor pressure is commonly meant the pressure of vapour in equilibrium with the condensed phase. A higher vapor pressure goes with a more volatile sample.

The structures appear in SMILES notation.

A short description of series [1]: Vapor pressure by thermogravimetry. Format: physicochemical. The following applies: at 20° C.; Mettler Toledo STAR thermogravimeter. How it is done: The vapor pressure can be determined by thermogravimetry by methods known in the art. In the context of the present invention, a Mettler Toledo STAR thermogravimeter with 5 mg sample on a glass plate may be used. As a reference compound, 3,4-dimethyl pyrazole (DMP) was inter alia measured and a vapor pressure of 3.7 Pa at 20° C. was determined.

The next series relates to N2O emissions. Description: N2O emissions from potted lettuce in greenhouse soil, gas chamber sampling, GC-ECD. Format: in vivo, Green head lettuce. The following applies: total cumulated N2O emissions, % inhibition compared to control; greenhouse 20° C., 60% humidity. The method, then: Green head lettuce was seeded in seedling boxes. Once the 4 leaf stage was reached one plant was potted into a 8 cm pot in standard greenhouse soil (mixture of peat, loam and sand) and grown in the greenhouse at 20° C. and 60% humidity. One week after planting the plants, the pots were separated out and each pot set onto a plant saucer designed with an inner compartment for the pot and an outer ring that is filled with water. At time 0, water with or without various concentrations of fertilizer and with either empty formulation or formulated capsule suspensions was applied to the plant such that the water holding capacity of the soil was around 50%. Then a gas sampling chamber was placed over the plant saucer such that the rim fit into the ring filled with water to create a gas-tight chamber and 20 cc air from the chamber were drawn into a syringe and immediately emptied in to a Vacutainer (Labco, 12 ml volume). This equals the Time Zero measurement for each pot. The same procedure was performed with all pots in the experiment. After incubation time of 1 h, again 20 cc air samples were taken from the gas chambers and emptied into Vacutainers as described above. […]
Samples were analyzed in a Shimadzu 2014 GC equipped with an ECD system. Total cumulated N2O emissions were calculated and related by calculating the % inhibition compared to control.

Compound `Cc1cn[nH]c1C` [3,4-dimethyl pyrazole (DMP), 3,4-dimethyl pyrazole] came in with a vapor pressure in series [1] of 3.7 Pa.
For the compound `C#CCOCc1ccc(Cl)cc1` [Example A-10], the “Inhibition (%) N2O emissions” value with N2O emissions amounted to 25%.

These data come from patent publication US20190276376A1, “CAPSULES COMPRISING BENZYLPROPARGYLETHERS FOR USE AS NITRIFICATION INHIBITORS” (BASF SE, priority 2016, published 2019).
